Series [1] concerns the target T1, Amine oxidase [flavin-containing] A (Homo sapiens, UniProt P21397).
T1 sequence (P21397 whole entry): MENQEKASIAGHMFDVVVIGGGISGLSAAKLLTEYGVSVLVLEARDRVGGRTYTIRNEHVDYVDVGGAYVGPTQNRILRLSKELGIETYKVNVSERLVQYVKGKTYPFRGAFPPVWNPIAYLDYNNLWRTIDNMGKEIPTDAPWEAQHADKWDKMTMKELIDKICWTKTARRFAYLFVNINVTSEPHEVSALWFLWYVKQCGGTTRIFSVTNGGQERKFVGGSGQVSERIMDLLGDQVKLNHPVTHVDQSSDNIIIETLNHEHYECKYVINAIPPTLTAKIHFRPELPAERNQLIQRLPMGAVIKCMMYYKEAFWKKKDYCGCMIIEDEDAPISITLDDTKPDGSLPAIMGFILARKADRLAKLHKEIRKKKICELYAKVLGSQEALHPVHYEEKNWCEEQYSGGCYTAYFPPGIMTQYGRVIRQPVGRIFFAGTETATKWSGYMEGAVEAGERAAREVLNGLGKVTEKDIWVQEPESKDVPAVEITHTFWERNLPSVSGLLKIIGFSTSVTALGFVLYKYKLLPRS
Kind of series: Inhibition of human MAO-A expressed in baculovirus infected BT1 cells microsome fraction by fluorescence spectrometry.

The target in series [2] is T2, Amine oxidase [flavin-containing] B (Homo sapiens, UniProt P27338).
T2 sequence (P27338 whole entry): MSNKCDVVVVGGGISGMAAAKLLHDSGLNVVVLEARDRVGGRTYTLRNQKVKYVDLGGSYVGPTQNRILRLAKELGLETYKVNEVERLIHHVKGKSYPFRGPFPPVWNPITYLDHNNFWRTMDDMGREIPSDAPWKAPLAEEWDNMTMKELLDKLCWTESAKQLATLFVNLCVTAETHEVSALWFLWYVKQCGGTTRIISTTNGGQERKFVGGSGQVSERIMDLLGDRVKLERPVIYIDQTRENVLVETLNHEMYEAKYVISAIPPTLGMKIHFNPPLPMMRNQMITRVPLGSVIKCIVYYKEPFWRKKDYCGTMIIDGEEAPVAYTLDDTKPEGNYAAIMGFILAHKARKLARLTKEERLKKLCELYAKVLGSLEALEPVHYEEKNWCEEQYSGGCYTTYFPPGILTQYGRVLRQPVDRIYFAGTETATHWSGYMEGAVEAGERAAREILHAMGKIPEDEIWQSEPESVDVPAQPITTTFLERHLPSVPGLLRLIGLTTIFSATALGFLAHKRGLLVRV
Description: Inhibition of human MAO-B expressed in baculovirus infected BT1 cells microsome fraction by fluorescence spectrometry.

The species entered for the next series is Homo sapiens. Description: Selectivity index, ratio of IC50 for human MAO-A to IC50 for human MAO-B.
Series [3] can be described thus: Cytotoxicity against human HeLa cells assessed as viable cells at 1 uM by MTT assay. The format is cell-based. The following applies: read-out: Activity.
Series [4] deals with T1, Amine oxidase [flavin-containing] A. Description: Reversible inhibition of human MAO-A expressed in baculovirus infected BT1 cells microsome fraction assessed as enzyme activity recovered at 10 times of IC50 concentration preincubated for 30 mins followed by dilution to 0.1 times of IC50 concentration by fluorescence spectrometry. The arrangement: scale not given: the % may be the effect or the level left.

Series [5] concerns the target T2, Amine oxidase [flavin-containing] B. Description: Reversible inhibition of human MAO-B expressed in baculovirus infected BT1 cells microsome fraction assessed as enzyme activity recovered at 10 times of IC50 concentration preincubated for 30 mins followed by dilution to 0.1 times of IC50 concentration by fluorescence spectrometry. More on the design: scale not given: the % may be the effect or the level left.

For series [6] the target is unchanged. Kind of series: Reversible inhibition of human MAO-B expressed in baculovirus infected BT1 cells microsome fraction assessed as enzyme activity recovered at 100 times of IC50 concentration preincubated for 30 mins followed by dilution to IC50 concentration by fluorescence spectrometry. More on the design: scale not given: the % may be the effect or the level left.

Series [7] in a line: Cytotoxicity against human HeLa cells assessed as viable cells at 10 uM by MTT assay. The conditions noted are these: read-out: Activity. The format is cell-based. A general note: Tetrazolium assays rely on reduction of a dye to a coloured formazan, in cell work by metabolically active cells.
For series [8], the target named is T1, Amine oxidase [flavin-containing] A. Description: Reversible inhibition of human MAO-A expressed in baculovirus infected BT1 cells microsome fraction assessed as enzyme activity recovered at 100 times of IC50 concentration preincubated for 30 mins followed by dilution to IC50 concentration by fluorescence spectrometry. More on the design: scale not given: the % may be the effect or the level left.

The nature of series [9]: Cytotoxicity against human HeLa cells by MTT assay. The format is cell-based.
Series [10] has as its target T2, Amine oxidase [flavin-containing] B. Kind of series: Inhibition of human MAO-B expressed in baculovirus infected BT1 cells microsome fraction assessed as residual enzyme activity at 4 times of IC50 concentration for 15 mins by fluorescence spectrometry relative to control. The following applies: 0.25 h.
For series [11] the target is unchanged. Description: Reversible inhibition of human MAO-B expressed in baculovirus infected BT1 cells microsome fraction assessed as residual enzyme activity at 4 times of IC50 concentration preincubated for 15 mins followed by dialysis for 24 hrs by fluorescence spectrometry relative to control.
Series [12] concerns the target T1, Amine oxidase [flavin-containing] A. Kind of series: Irreversible inhibition of human MAO-A expressed in baculovirus infected BT1 cells microsome fraction assessed as enzyme activity recovered at 10 times of IC50 concentration preincubated for 30 mins followed by dilution to 0.1 times of IC50 concentration by fluorescence spectrometry. More on the design: scale not given: the % may be the effect or the level left.

For orientation: IC50 means the concentration that gives 50% inhibition. What is called CC50 is the concentration giving 50% cytotoxicity.

As to `O=C(/C=C/c1cccc(C(F)(F)F)c1)c1ccc[nH]1`, the results for the IC50 in series [1] and in series [2] were 267 µM and 1.4 µM, respectively. Further, the Ratio IC50 in the series listed under Homo sapiens was determined as 191.
With `COc1ccc(C(=O)/C=C/c2ccc(Cl)s2)c(O)c1`, the IC50 in [1] amounted to 9.99 µM; in [2], 0.185 µM. Also, in the series listed under Homo sapiens, the Ratio IC50 came out at 54.
`O=C(/C=C/c1ccc(C(F)(F)F)cc1)c1ccc[nH]1`: the viability at 1 µM in series [3] was determined as 77.5%. The IC50 turned out to be 3.81 µM in series [1] and 0.83 µM in series [2]. Also, the Activity in series [4] was determined as 90%; in series [5], 85%; in [6] it was 32%; in series [8], 67%. Further, in [7], the viability at 10 µM stood at 4.66%. In [9], this molecule returned a CC50 of 28.2 µM.
With `O=C(/C=C/c1ccc(C(F)(F)F)cc1)c1ccc(Cl)s1`, the IC50 in series [1] stood at 7.56 µM; in series [2], 0.133 µM. Moreover, the Ratio IC50 in the series listed under Homo sapiens is 57.
As to `Cc1ccc(C(=O)/C=C/c2ccc(F)c(Br)c2)s1`, the Activity in [10] came out at 18%; in [5], 26%; in [6], 5%; in series [11], 83%. The viability at 1 µM in series [3] was 104%. The IC50 in series [1] came out at 16.1 µM; in series [2], 0.067 µM. Moreover, the viability at 10 µM in [7] was determined as 95.7%. Moreover, the Ratio IC50 in the series listed under Homo sapiens is 240.
Turning to `C#CCN(C)[C@H](C)Cc1ccccc1` [SELEGILINE], in [12], the Activity is recorded as 1.2%.
For `O=C(/C=C/c1ccc(F)c(Br)c1)c1ccc[nH]1`, in [3], the viability at 1 µM is 99.4%. The IC50 in series [1] worked out at 8.98 µM; in series [2], 0.803 µM. In addition, the values for the Activity in series [5] and in [6] were 81% and 60%, respectively. In addition, the viability at 10 µM in series [7] was 98%. Moreover, the Ratio IC50 in the series listed under Homo sapiens is 11.
For `O=C(/C=C/c1cccc(Cl)c1)c1ccc[nH]1`, the IC50 is 143 µM in series [1] and 3.27 µM in series [2]. The Ratio IC50 in the series listed under Homo sapiens was found to be 44.
For `COc1ccc(C(=O)/C=C/c2cccc(Cl)c2)cn1`, in that order: 15.3 µM, 0.33 µM and 46.
With `C#CCN(C)Cc1ccccc1` [PARGYLINE], in series [12], the Activity was determined as 1.2%.
As for `O=C(/C=C/c1ccc(F)c(Br)c1)c1ccc(Cl)s1`, the IC50 in series [1] came to 10.5 µM; in series [2], 0.116 µM. Also, in the series filed under Homo sapiens, the Ratio IC50 was found to be 91.
